Holding throughout (assay type): cell-based
The subject of assay [1] is NAMALWA leukemic cell line. The assay is described as follows: LDH release cytotoxicity assay, NAMALWA. As to conditions: 5×10^5 cells/mL, 10% fetal calf serum, incubation 2, 4, 8 and 24 hours, time of ID50 not given. Here is the method: (§1) The compounds of the present invention were tested for their cytotoxic effects upon various leukemic cell lines. The effectiveness of each of the compounds tested was measured through assessing the leakage of the cytosolic enzyme, lactic dehydrogenase (LDH), from the leukemia cells into the media following incubation with the compound.
(§2) The LDH release assay used was a modified microtiter plate enzyme linked immunosorbent assay LDH release assay. Seven mg of each phospholipid compound to be tested was completely dissolved in separate 700 μL volumes of 100% ethanol. The ethanolic solutions were then diluted to form stock solutions by the addition of 70 mL RPMI complete medium until the concentration of phospholipid in each solution was lowered to about 100 μg/mL. An RPMI complete medium contains a RPMI 1640 medium, without red phenol, 20 mM Hepes buffer, 2 mM L-glutamine, 50 μM 2-mercaptoethanol and 20% of fetal calf serum. To form an ethanol control, a 350 μL aliquot of ethanol was added to a small glass bottle containing 35 mL of RPMI complete medium.
(§3) Each stock solution was mixed by magnetic stirring bar at room temperature for one hour and then filtered through a 0.22 μm Millipore filter, where the filter was pre-rinsed with 0.6 mL of RPMI complete medium. The stock solutions were subsequently placed in a shaker in a cold room overnight and subsequently stored in small glass bottles wrapped with aluminum foil at 4° C.
(§4) Each stock solution was shaken for 30 minutes at room temperature. Then each phospholipid stock solution was separately diluted, in small glass vials, with RPMI complete medium to form solutions with phospholipid concentrations of 80 μg, 40 μg, 20 μg and 10 μg.
(§5) For each cell line, the leukemia cells were removed from the culture flask, put into a 50 mL conical tube, centrifuged at 500 rpm for 10 minutes and then washed once with fresh RPMI 1640 medium.
(§6) Aliquots (0.4 mL) of each 100 μg, 80 μg, 40 μg, 20 μg and 10 μg phospholipid solution were added to small vials containing 0.4 mL of cell suspension to form test solutions with phospholipid concentrations of 50, 40, 20, 10 and 5 μg/mL; cell densities of 5×10^5 cells/mL; and 10% fetal calf serum in RPMI complete medium. For an ethanol control group, an aliquot of 0.4 mL of the ethanol control was mixed with 0.4 mL of cell suspension to form a control group with an ethanol concentration of 0.495% and a cell density of 5×10^5 cells/mL. For a negative control group, a 0.4 mL aliquot of RPMI complete medium was added to 0.4 mL of cell suspension to give a cell density of 5×10^5 cells/mL. For a positive control group, cell suspension was diluted with RPMI 1640 medium, which contained 10% fetal calf serum, 20 mM Hepes buffer, 2 mM L-glutamine and 2-mercaptoethanol and stored overnight at -70° C.
(§7) Aliquots (0.2 mL) of each test solution and control group were added to flat bottomed Linbro microtiter plates, in triplicate, and incubated for 2, 4, 8 and 24 hours. Following incubation, the plates were centrifuged at 500 rpm for 5 minutes. Supernatant aliquots of 0.1 mL were then transferred to separate wells on an optic-clear, flat-bottomed microtiter plate. A volume of 0.1 mL of an LDH substrate mixture, containing 5.4×10^-2 M L(+)-lactate, 6.6×10^-4 MINT, provided by Sigma Chemical Company, 2.8×10^-4 M PMS, and 1.3×10^-3M NAD in a 0.2 M Tris buffer of pH 8.2, was added to each well. A Linbro-Titertek Company Lambda microtiter plate reader was used to monitor the absorbance at 490 nm.
(§8) The cytotoxic effectiveness of each compound tested, as provided in Table I, is described in terms of the ID50 of the drug. The ID50 is the concentration of the compound tested that is required to produce a cytotoxicity that is 50% of the control's cytotoxicity.

A further assay concerns CEM leukemic cell line. The assay is described as follows: LDH release cytotoxicity assay, CEM. The following applies: 5×10^5 cells/mL, 10% fetal calf serum, incubation 2, 4, 8 and 24 hours, time of ID50 not given. How it is done:
as §1, §2, §3, §4, §5, §6, §7, §8

A further assay has as its system HL60 leukemic cell line. The assay is described as follows: LDH release cytotoxicity assay, HL60. The following applies: Homo sapiens, HL-60, 5×10^5 cells/mL, 10% fetal calf serum, incubation 2, 4, 8 and 24 hours, time of ID50 not given. Here is the method: as §1, §2, §3, §4, §5
Aliquots (0.4 mL) of each 100 μg, 80 μg, 40 μg, 20 μg and 10 μg phospholipid solution were added to small vials containing 0.4 mL of cell suspension to form test solutions with phospholipid concentrations of 50, 40, 20, 10 and 5 μg/mL; cell densities of 5×10^5 cells/mL; and 10% fetal calf serum in RPMI complete medium. For an ethanol control group, an aliquot of 0.4 mL of the ethanol control was mixed with 0.4 mL of cell suspension to form a control group with an ethanol concentration of 0.495% and a cell density of 5×10^5 cells/mL. […]
Aliquots (0.2 mL) of each test solution and control group were added to flat bottomed Linbro microtiter plates, in triplicate, and incubated for 2, 4, 8 and 24 hours. […] A Linbro-Titertek Company Lambda microtiter plate reader was used to monitor the absorbance at 490 nm. […]

The test system of assay [2] is HUT 78 leukemic cell line. Briefly: LDH release cytotoxicity assay, HUT 78. The following applies: Homo sapiens, HuT78, 5×10^5 cells/mL, 10% fetal calf serum, incubation 2, 4, 8 and 24 hours, time of ID50 not given. Here is the method:
as §1, §2, §3, §4, §5, §6, §7, §8

≈ marks a conversion by molar mass, not a printed value. A value given as a limit tells only on which side of the number the result lay.

As for `CCCCCCCCCCCCCCCCC[C@H]1CO[C@H](COP(=O)([O-])OCC[N+](C)(C)C)CO1` [(2S,5S)-(5-heptadecyl-1,4-dioxan-2-yl)methyloxyphosphocholine], the IC50 (in assay [1]; in the assay on CEM leukemic cell line; in the assay on HL60 leukemic cell line) was < 2 µg/mL in each case.

For the compound `CCCCCCCCCCCCCCCCC[C@@H]1CO[C@@H](COP(=O)([O-])OCC[N+](C)(C)C)CO1` [(2R,5R)-(5-heptadecyl-1,4-dioxan-2-yl) methyloxyphosphocholine], the IC50 (in assay [1]; in the assay with CEM leukemic cell line; in the assay on HL60 leukemic cell line) was 4 µg/mL (≈ 7.67 µM) each time.

Turning to `CCCCCCCCCCCCCCCCCCOCC(COP(=O)([O-])OCC[N+]1(C)CCOCC1)OC` (stereo not drawn) [2-O-Methyl-1-O-octadecylglycero-3-phospho-(β-(N-methylmorpholino))ethanol], the half-inhibitory concentration (IC50) in assay [1] is 11 µg/mL (≈ 19.4 µM); in assay [2], 6.6 µg/mL (≈ 11.7 µM); in the assay on CEM leukemic cell line it was 3.6 µg/mL (≈ 6.36 µM).

Regarding `CCCCCCCCCCCCCCCCCCOC[C@H](COP(=O)([O-])O[C@H](C)C[N+](C)(C)C)OC` [(2R,αR)-2-O-Methyl-1-O-octadecyl-sn-glycero-3-phospho-(α-methyl)choline], the 50% inhibitory concentration (IC50) in assay [1] is 22 µg/mL (≈ 40.9 µM); in assay [2], 21 µg/mL (≈ 39.1 µM); in the assay on CEM leukemic cell line, 5.6 µg/mL (≈ 10.4 µM).

For the compound `CCCCCCCCCCCCCCCCC[C@H]1CO[C@@H](COP(=O)([O-])OCC[N+](C)(C)C)CO1` [(2R,5S)-(5-heptadecyl-1,4-dioxan-2-yl)methyloxyphosphocholine], the IC50 (in assay [1]; with CEM leukemic cell line; in the assay on HL60 leukemic cell line) was < 2 µg/mL each time.

As for `CCCCCCCCCCCCCCCCCCOC[C@H](COP(=O)([O-])OC[C@H](C)[N+](C)(C)C)OC` [(2R,βS)-2-O-Methyl-1-O-octadecyl-sn-glycero-3-phospho-(β-methyl)choline], the concentration for half-maximal inhibition (IC50) worked out at 12.8 µg/mL (≈ 23.8 µM) in assay [1], 6.6 µg/mL (≈ 12.3 µM) in assay [2] and 2.85 µg/mL (≈ 5.3 µM) in the assay with CEM leukemic cell line.

As to `CCCCCCCCCCCCCCCCCCOCC(COP(=O)([O-])OCC[N+]1(C)CCCC1)OC` (stereo not drawn) [2-O-Methyl-1-O-octadecylglycero-3-phospho-(β-(N-methylpyrrolidino))ethanol], the IC50 was 17.5 µg/mL (≈ 31.8 µM) in assay [1], 13 µg/mL (≈ 23.6 µM) in assay [2] and 3.4 µg/mL (≈ 6.18 µM) in the assay with CEM leukemic cell line.

For `CCCCCCCCCCCCCCCCC[C@@H]1CO[C@H](COP(=O)([O-])OCC[N+](C)(C)C)CO1` [(2S,5R)-(5-heptadecyl-1,4-dioxan-2-yl)methyloxyphosphocholine], the IC50 (in assay [1]; in the assay on CEM leukemic cell line; in the assay with HL60 leukemic cell line) was 4 µg/mL (≈ 7.67 µM) throughout.

Turning to `CCCCCCCCCCCCCCCCCCOC[C@H](COP(=O)([O-])O[C@@H](C)C[N+](C)(C)C)OC` [(2R,αS)-2-O-Methyl-1-O-octadecyl-sn-glycero-3-phospho-(α-methyl)choline], the half-inhibitory concentration (IC50) in assay [1] came to 21.5 µg/mL (≈ 40 µM); in assay [2], 15.2 µg/mL (≈ 28.3 µM); in the assay on CEM leukemic cell line it was 4.5 µg/mL (≈ 8.37 µM).

Turning to `CCCCCCCCCCCCCCCCCCOC[C@H](COP(=O)(O)O)OC` [(R)-2-O-Methyl-1-O-octadecyl-sn-glycero-3-phosphoric acid], the IC50 in assay [1] amounted to 24 µg/mL (≈ 54.7 µM); in assay [2], 3 µg/mL (≈ 6.84 µM); in the assay on CEM leukemic cell line, 2.95 µg/mL (≈ 6.73 µM).

Consider `CCCCCCCCCCCCCCCCCCOC[C@H](COP(=O)([O-])OC[C@@H](C)[N+](C)(C)C)OC` [(2R,βR)-2-O-Methyl-1-O-octadecyl-sn-glycero-3-phospho-(β-methyl)choline], for which the concentration for half-maximal inhibition (IC50) turned out to be 13.5 µg/mL (≈ 25.1 µM) in assay [1], 11.2 µg/mL (≈ 20.8 µM) in assay [2] and 3.3 µg/mL (≈ 6.14 µM) in the assay with CEM leukemic cell line.
